Data on three compounds can be found in patent US20250204553A1, “FEED AND METHODS FOR CONTROLLING HEARTWORM INFECTIONS IN A MAMMAL” (In the Bowl Animal Health, Inc., priority 2022, published 2025).

For series [1] the following is noted: in vivo; cited from earlier work.
Series [2] deals with Dirofilaria immitis. Nature of the series: Efficacy of moxidectin administered per os to dogs for treatment and control of Dirofilaria immitis. Particulars: all 12 dogs; daily oral 0.8 μg/kg and 1.6 μg/kg up to Day 179; inoculated with 50 L3 D. immitis on Day -28 or Day 0; counted on or after Day 180; expected result. It is filed as in vivo.
In series [3] the test system is Dirofilaria immitis. Nature of the series: Efficacy of monepantel administered per os to dogs for treatment and control of Dirofilaria immitis. It is filed as in vivo. As to conditions: all 12 dogs; daily oral 0.083 mg/kg and 0.83 mg/kg up to Day 179; inoculated with 50 L3 D. immitis on Day -28 or Day 0; counted on or after Day 180; expected result.

For ivermectin, the terminal half-life in series [1] was 43.2 h.
For the compound `CO/N=C1\C[C@]2(C[C@@H]3C[C@@H](C/C=C(\C)C[C@@H](C)/C=C/C=C4\CO[C@@H]5[C@H](O)C(C)=C[C@@H](C(=O)O3)[C@]45O)O2)O[C@H](/C(C)=C/C(C)C)[C@H]1C` [moxidectin], the terminal half-life entry in series [1] is on record as “approximately 13.9 days”. The same compound came in with a heartworms recovered in series [2] of 0.
In series [3], `C[C@](C#N)(COc1cc(C#N)ccc1C(F)(F)F)NC(=O)c1ccc(SC(F)(F)F)cc1` [monepantel, N-[(2S)-2-cyano-1-[5-cyano-2-(trifluoromethyl)phenoxy]propan-2-yl]-4-(trifluoromethylsulfanyl)benzamide] showed a heartworms recovered of 0.
